In patent US20180021257A1, “WATER-SOLUBLE PHARMACEUTICAL COMPOSITION COMPRISING AT LEAST ONE THERAPEUTICALLY ACTIVE SUBSTANCE AND AT LEAST ONE SUBSTANCE CAPABLE OF FORMING MICELLES” (CONSEJO NACIONAL DE INVESTIGACIONES CIENTIFICAS Y TECNICAS …, priority 2015, published 2018):
In brackets after ≈: the same amount, converted by molar mass. Several values for one entry are separate records, joined by “and”; a condition that tells them apart may be missing. Identical values can stand only once. Like-named read-outs stand apart in the source and are kept apart here.

Key:
[1] = Loading of Ptx into antibiotic micelles, quantified by HPLC; format: physicochemical; details: for Maximum load / loading capacity: Ptx or Dtx in micelles; for Ptx loaded (%): 30 minutes, Teicoplanina 100 mg/ml, Ptx added 5 mg; for Ptx in Teicoplanin micelles: Teicoplanin 200 mg/ml
Method: Samples with 400 mg of teicoplanin were dissolved in 2 ml of distilled water at pH 5.5 or in 2 ml of phosphate buffer solution of 20 mM at pH 6, with gentle stirring in order to obtain full dissolution. The solution was allowed to stand for at least 4 hours at 4° C. A 0.5 ml aliquot was incubated with 25 μl of DMSO having increasing amounts of Paclitaxel (Ptx) in order to reach the following final concentrations: 1 mg/ml, 5 mg/ml, 10 mg/ml and 20 mg/ml.
The solutions were incubated at 25° C. for at least 4 hours and then centrifuged at 15,000×g for 10 minutes to remove the potential insoluble Ptx that had not encapsulated in teicoplanin micelles. Finally, in order to remove the remaining DMSO, the samples were dialyzed with a phosphate buffer solution of 20 mM at pH 6 for 12 hours. The quantification of Ptx introduced into teicoplanin micelles was carried out by using HPLC.
Ptx is loaded into teicoplanin micelles at a concentration of 5 mg/ml, according to the description of Example 1, but for 30 minutes at 4° C., 25° C. and 37° C. After incubation, the samples were centrifuged at 15,000×g for 10 minutes and they were also dialyzed in distilled water for 12 hours at 4° C. Finally, the amount of Ptx introduced into the teicoplanin micelle in a soluble way was quantified by HPLC. […] The load in all conditions was higher than 90%.

[2] = Particle size of micelles by dynamic light scattering (DLS); format: physicochemical; details: for Diameter of micelles: comparative study, dynamic light scattering
From the text: Determining Particle Size of Teico, Teico-Ptx and Teico-PTX-Alb Micelles by Dynamic Light Scattering (DLS)

[3] = cited from earlier work; for Micelles stable (Daptomycin: and biologically active): at 25° C.
[4] = cited from earlier work
[5] = in vivo; cited from earlier work
[6] = cited from earlier work; remark: listed apart in the source
[7] = Solubility in aqueous medium; format: physicochemical
[8] = tested on: HEP-2; experiment: In vitro cytotoxic activity in tumor cell culture (MTT test); format: cell-based; details: for Cell Death after 24 Hours of Treatment: HEP-2, MTT
Method: Tumor cells, such as HEP-2, were incubated in MEM medium having fetal bovine serum by 2% (Natocor-Villa Carlos Paz—Cordoba—Argentina) in a CO2 incubator by 5% CO2, at confluence. Different concentrations of the compositions mentioned below were added to the cell culture: […]

[9] = Dialysis experiments on Teicoplanin micelles; format: physicochemical; details: after 48 hours of dialysis
Method: In fact, in dialysis experiments, it was shown a loss of about 25% of molecules of Teicoplanin after 48 hours of dialysis, while for the Teico-Ptx complex is was shown a loss of about 5 to 8%.

[10] = Critical micelle concentration (CMC); format: physicochemical
[11] = tested on: red blood cells (RBCs)
[12] = Loading of Ptx into antibiotic micelles, quantified by HPLC; format: physicochemical; details: Teicoplanin 200 mg/ml; Ptx concentration 2.5 mg/ml
[13] = aqueous medium with teicoplanin micelles, aqueous with cosolvent or surfactant or cyclodextrin
[14] = aqueous medium without micelles

CCCCCCCCCC(=O)N[C@@H](Cc1c[nH]c2ccccc12)C(=O)N[C@H](CC(N)=O)C(=O)N[C@@H](CC(=O)O)C(=O)N[C@@H]1C(=O)NCC(=O)N[C@@H](CCCN)C(=O)N[C@@H](CC(=O)O)C(=O)N[C@H](C)C(=O)N[C@@H](CC(=O)O)C(=O)NCC(=O)N[C@H](CO)C(=O)N[C@@H]([C@H](C)CC(=O)O)C(=O)N[C@@H](CC(=O)c2ccccc2N)C(=O)O[C@@H]1C [Daptomycin]
Maximum load / loading capacity [1]: 5 mg/mL
Diameter of micelles [2]: 5 nm
Micelles stable and biologically active ([3]; at 4° C.): 48 hours
Micelles stable (Daptomycin: and biologically active) [3]: 12 hours
CMC ([4]; pH 4, listed as Dapto micelles): 400 μg/ml and 250 μM
Concentration at which molecule remains soluble ([4]; pH 6.5): 150 mg/mL
Half life [5]: 7 to 10 h
Suggested maximum dose ([6]; in vivo): 10 to 12 mg/kg/day

CC(=O)O[C@@]12CO[C@@H]1C[C@H](O)[C@@]1(C)C(=O)[C@H](O)C3=C(C)[C@@H](OC(=O)[C@H](O)[C@@H](NC(=O)OC(C)(C)C)c4ccccc4)C[C@@](O)([C@@H](OC(=O)c4ccccc4)[C@H]21)C3(C)C [Dtx, Docetaxel]
solubility [7, 13]: 10000 µg/mL (≈ 12.4 mM)
solubility [7, 14]: < 1 µg/mL

CC(=O)O[C@H]1C(=O)[C@@]2(C)[C@H]([C@H](OC(=O)c3ccccc3)[C@]3(O)C[C@H](OC(=O)[C@H](O)[C@@H](NC(=O)c4ccccc4)c4ccccc4)C(C)=C1C3(C)C)[C@]1(OC(C)=O)CO[C@@H]1C[C@@H]2O [Ptx, Paclitaxel]
Cell Death after 24 Hours of Treatment ([8]; Ptx 5 nM): 10%
Cell Death after 24 Hours of Treatment ([8]; Ptx 10 nM): 25%
Cell Death after 24 Hours of Treatment ([8]; Ptx 20 nM): 40%
Cell Death after 24 Hours of Treatment ([8]; Ptx 50 nM): 90%
Killing of tumor cells ([8]; in 24 hours up to a concentration of 50 ng/ml): complete killing
solubility [7, 13]: 10000 µg/mL (≈ 11.7 mM)
solubility [7, 14]: < 1 µg/mL

Teicoplanin
Ptx loaded (%) ([1]; 4° C.): 94%
Ptx loaded (%) ([1]; 25° C.): 96%
Ptx loaded (%) ([1]; 37° C.): 98%
Load capacity compared with Daptomycin ([1]; Dtx or Ptx): twice
Maximum load / loading capacity [1]: 10 mg/mL
Maximum load / loading capacity ([1]; listed as Teicoplanin micelles): about 10 mg/ml
Ptx in Teicoplanin micelles ([1]; Ptx concentration 1 mg/ml): 1 mg/mL
Ptx in Teicoplanin micelles ([1]; Ptx concentration 5 mg/ml): 5 mg/mL
Ptx in Teicoplanin micelles ([1]; Ptx concentration 10 mg/ml): 10 mg/mL
Ptx in Teicoplanin micelles ([1]; Ptx concentration 20 mg/ml): 2 mg/mL
Ptx load ([1]; in all conditions (4° C., 25° C. and 37° C.)): higher than 90%
Cell Death after 24 Hours of Treatment ([8]; Teico 5 μM control micelles without Ptx): 0%
Effect on cells ([8]; Teicoplanin by itself): no effect
Size larger than Dapto and Dapto-Ptx micelles [2]: 40%
Particle size ([2]; DLS, Example 5): 8 nm
Polydispersity index ([2]; DLS, Example 5): 0.017
Diameter of micelles [2]: 8 nm
Loss of molecules of Teicoplanin [9]: about 25%
CMC [10]: 100 µM
Interaction with red blood cells (RBCs) [11]: neither Teicoplanin nor Teico-Ptx complex interact with red blood cells
Ptx in Teicoplanin micelles [12]: 2.5 mg/mL
Micelles stable ([3]; at 4° C.): 35 days
Micelles stable (Daptomycin: and biologically active) [3]: 48 hours
Half life [5]: 70 to 100 h
Suggested maximum dose ([6]; to avoid unwanted side effects or cytotoxicity): 20 mg/kg/day
